From PMC7571068, “Antiproliferative and Pro-Apoptotic Effect of Uvaol in Human Hepatocarcinoma HepG2 Cells by Affecting G0/G1 Cell Cycle Arrest, ROS Production and AKT/PI3K Signaling Pathway” (Molecules, 2020)
Values after ≈ are worked out from the molar mass of the structure shown.

Tests used:
HepG2 cells [1] = tested on: HepG2 cells; design: method as in PMID 26370984; conditions: HepG2, 72 h; cited from earlier work
HepG2 line = tested on: HepG2 line; design: method as in PMID 26151733; conditions: HepG2, 22.11 μg/mL, same phase = G0/G1; cited from earlier work
HepG2 cells [2] = assay: Muse Annexin V & Dead Cell apoptosis assay; type: cell-based, human; conditions: HepG2, staurosporine 1 μg/mL (positive control)
Procedure: (§1) A total of 1.5 × 10^5 cells were seeded per well in 24-well plates for each cell line (quadruplicates for three different populations of each cell line). […] Negative control populations were incubated only with the appropriate culture medium. The samples were analyzed in the Muse^TM Cell Analyzer (Merck-Millipore®, Burlington, MA, USA). Phosphatidylserine (PS) is a phospholipid that is usually found in the inner half of the cytoplasmic membrane, but is outsourced when loss of integrity occurs in the apoptosis process. The method is based on the recognition and binding to the PS exposed by annexin V protein, labeled with a fluorescent substance to detect the interaction and quantify it. We used the Muse^TM Annexin V & Dead Cell kit purchased from Millipore (Billerica, MA, USA), which provides the percentage of viable cells, apoptotic and affected by necrosis.

WRL68 cells = assay: Muse Annexin V & Dead Cell apoptosis assay; type: cell-based, human; conditions: WRL68, staurosporine 1 μg/mL (positive control)
Procedure: as §1

Question: With CC1(C)CC[C@]2(C(=O)O)CC[C@]3(C)C(=CC[C@@H]4[C@@]5(C)C[C@@H](O)[C@H](O)C(C)(C)[C@@H]5CC[C@]43C)[C@@H]2C1 [maslinic acid] as the compound, how does the IC50 (HepG2 cells [1]) read?
Answer: 47 µg/mL (≈ 99.4 µM)

Question: For CC1(C)CC[C@]2(C(=O)O)CC[C@]3(C)C(=CC[C@@H]4[C@@]5(C)CC[C@H](O)C(C)(C)[C@@H]5CC[C@]43C)[C@@H]2C1 [oleanolic acid], which cell cycle arrest (HepG2 line) is on record?
Answer: arrest in the same phase of the cycle

Question: For CN[C@@H]1C[C@H]2O[C@@](C)([C@@H]1OC)n1c3ccccc3c3c4c(c5c6ccccc6n2c5c31)C(=O)NC4 [staurosporine, reference compound], which “change in apoptotic cells vs control” value (HepG2 cells [2]) is on record?
Answer: did not lead to an increase in apoptotic cells

Question: What about the “change in number of apoptotic and necrotic cells vs control” value (WRL68 cells) of the same compound?
Answer: equally significant increase

Question: What about the “change in number of viable cells vs control” value (WRL68 cells) of the same compound?
Answer: significant decrease
